The NIST ThermoML archive (doi:10.1016/j.jct.2011.11.019)

Assay: xn = mol fraction of the nth substance listed
Settings: 298.15 K, 101 kPa, Liquid, Vibrating tube method

OC(C(F)(F)F)C(F)(F)F [1,1,1,3,3,3-hexafluoro-2-propanol] + O
Settings	mass density [kg/m3]
x1 = 0.1024	1261.96
x1 = 0.205	1387.36
x1 = 0.3016	1455.74
x1 = 0.4067	1501.77
x1 = 0.4929	1527.75
x1 = 0.5943	1550.19
x1 = 0.6411	1558.59
x1 = 0.8065	1585.8
x1 = 0.9005	1593.04
